A short description of series [1]: Solubility of compound in DMSO. Format: physicochemical.
The subject of series [2] is Nucleic Acid. Put plainly: Induction of bacteriophage supercoiled double stranded phiX174 plasmid DNA cleavage assessed as formation of relaxed open circular form at 40 ug using ethidium bromide staining by agarose gel electrophoresis-based UV transilluminator analysis relative to control. Conditions: unidentified phage. Set-up: scale not given: the % may be the effect or the level left. Format: nucleic-acid assay.

The test system of series [3] is Nucleic Acid. Briefly: Induction of bacteriophage supercoiled double stranded phiX174 plasmid DNA cleavage assessed as formation of relaxed open circular form at 30 ug followed by UV irradiation for 45 mins using ethidium bromide staining by agarose gel electrophoresis-based UV transilluminator analysis relative to control. Set-up: scale not given: the % may be the effect or the level left. Format: nucleic-acid assay. Conditions: unidentified phage.

The subject of series [4] is Nucleic Acid. Put plainly: Induction of bacteriophage supercoiled double stranded phiX174 plasmid DNA cleavage assessed as formation of relaxed open circular form at 80 ug followed by UV irradiation for 45 mins using ethidium bromide staining by agarose gel electrophoresis-based UV transilluminator analysis relative to control. Format: nucleic-acid assay. Set-up: scale not given: the % may be the effect or the level left. Conditions: unidentified phage.

In series [5] the test system is Nucleic Acid. Put plainly: Induction of bacteriophage supercoiled double stranded phiX174 plasmid DNA cleavage assessed as formation of relaxed open circular form at 120 ug followed by UV irradiation for 45 mins using ethidium bromide staining by agarose gel electrophoresis-based UV transilluminator analysis relative to control. Format: nucleic-acid assay. Set-up: scale not given: the % may be the effect or the level left. As to conditions: unidentified phage.

The structures appear in SMILES notation.

`Cc1nc2ccccc2n2c(-c3ccccc3Cl)nnc12`: the solubility entry in series [1] is listed as “soluble”.

As to `Cc1nc2ccccc2n2c(-c3ccccc3[N+](=O)[O-])nnc12`, the solubility entry in series [1] is given as “soluble”.

With `Cc1nc2ccccc2n2c(-c3ccco3)nnc12`, the solubility result in series [1] is given as “soluble”.

Take `Cc1nc2ccccc2n2c(-c3cccs3)nnc12`: in series [1], the solubility result is reported as “soluble”. The Activity in series [2] came to 0%; in series [3], 26%; in series [4], 53%; in series [5], 68%.
